Patent US8835447B2, “Method for treating androgen receptor positive cancers” (priority 2009, dated 2014)
Entries after “also recorded” stand apart in the source; their conditions may differ.

Assays:
[1] = system: HT1080, HeLa and DU145 cells; assay: Colony formation assay, non-PCa and AR-negative PCa cells; assay type: cell-based, human; conditions: 10 μM, 7 days
Method: (§1) Cell Colony Assay: Cells were plated in 24-well plates at a density allowing 6-7 days of exponential growth before confluency. Medium and compound was replaced every 48 hours to minimize the effect of potential compound instability. After 7 days of incubation in the presence of compound, cells were fixed and stained with methylene blue, followed by extraction of the stain with 1% SDS and spectrophotometry at 650 nm. Each assay was run in triplicate and the difference between control and compound-treated wells was determined using Student's t-test.
(§2) This Example provides a description of the effect of the selected compounds on the growth of PCa cells. To test the toxicity of the identified AR inhibitors towards cells of different origins, we performed colony formation assays using a single dose of each compound (10 μM) on several PCa (LNCaP, C4-2, CWR22R and DU145) and two non-PCa (HT1080 and HeLa) cell lines (FIG. 2A). […] These compounds were not weaker inhibitors of AR transcriptional activity in CWR22R or C4-2 cells than compounds that inhibited growth of the cells.

[2] = system: C4-2 and CWR22R cells; assay: Colony formation assay, androgen-independent C4-2 and CWR22R cells; assay type: cell-based, human; conditions: 10 μM, 7 days
Method: (§3) Cell Colony Assay: Cells were plated in 24-well plates at a density allowing 6-7 days of exponential growth before confluency. Medium and compound was replaced every 48 hours to minimize the effect of potential compound instability. After 7 days of incubation in the presence of compound, cells were fixed and stained with methylene blue, followed by extraction of the stain with 1% SDS and spectrophotometry at 650 nm. Each assay was run in triplicate and the difference between control and compound-treated wells was determined using Student's t-test. This Example provides a description of the effect of the selected compounds on the growth of PCa cells. To test the toxicity of the identified AR inhibitors towards cells of different origins, we performed colony formation assays using a single dose of each compound (10 μM) on several PCa (LNCaP, C4-2, CW[…] and DU145) and two non-PCa (HT1080 and HeLa) cell lines (FIG. 2A). […] These compounds were not weaker inhibitors of AR transcriptional activity in CW[…] or C4-2 cells than compounds that inhibited growth of the cells.

[3] = system: LNCaP cells; assay: Colony formation assay, LNCaP cells; assay type: cell-based, human; conditions: 10 μM, 7 days
Method: as §3

[4] = system: C4-2 tumors; assay: C4-2 xenograft model in nude mice; assay type: in vivo, mouse; conditions: 6 daily i.p. injections, 100xIC50 dose
Source text: FIGS. 6A and 6B provide data showing anti-tumor activity of the selected hits in mouse models of androgen-independent PCa. FIG. 6A provides a graphical representation of data obtained from i.p. injection of the listed compounds or DMSO vehicle into nude mice carrying subcutaneous (s.c.) C4-2 tumors. Six daily injections were given starting when tumors were around 100 mm3 in size. There were 4-5 mice per group with two tumors per mouse. Asterisks (*) and number signs (#) are placed under the means of measurement in the c6 and c11 groups respectively which are statistically different from the control group by ANOVA test (>99%) B. C52 (9 mg/kg or 18 mg/kg) or DMSO vehicle was injected into the tail vein of nude mice carrying s.c. CWR22R tumors. Five daily injections were given starting when tumors were around 40 mm3 in size. There were 10 mice per group with one tumor per mouse. Asterisks (*) are placed under the means of measurement which are statistically different from the control group by ANOVA test (>99%). Error bars in both FIGS. 6A and B—standard deviation between the size of tumors within a given treatment group.
Testing of the anti-tumor effect of compounds in mice was done according to an IACUC-approved protocol in 8 week old male athymic nude mice from Harlan (Indianapolis, Ind.). For the C4-2 xenograft model, 10^6 C4-2 cells were injected subcutaneously (s.c.) in 2 sites of each mouse in 50% matrigel (BD Biosciences, Bradford, Mass.) in PBS. Upon development of visible tumors, they were measured using digital caliper. Tumor volume was calculated according to the formula: […]. Mice were injected with compounds i.p. daily for 6 days starting on the day when at least one tumor per mouse reached 100 mm^3 in size. Five mice per group were used. For the CWR22R xenograft model, CWR22R cells were inoculated (10^5 cells per inoculum) in 50% matrigel, one site per mouse. Treatment was started when the tumor grew to a size of at least 25 mm^3. Compounds were diluted in captisol (CyDex, Lenexa, Kans.) and delivered intravenously (to reduce “first pass” liver effect) once a day for 5 days. Ten mice per group were used. Mice were monitored daily and tumors were measured every other day. Mice were euthanized according to institutional regulations when the size of tumor reached 1000 mm^3. Comparison of the tumor growth in control and treated mice was done using ANOVA test.
We evaluated the potential anti-tumor effect of the hits using C4-2 and CWR22R xenograft models of androgen-independent PCa in nude mice. Groups of C4-2 tumor-bearing mice (4-5 mice per group, each with two tumors) were given 6 daily i.p. injections of compound (100×IC50 dose) or DMSO vehicle.

[5] = system: AR-expressing PCa cell lines (LNCaP, C4-2, CWR22R); assay: Toxicity to AR-expressing PCa cell lines (colony formation / dose-dependent growth inhibition); assay type: cell-based, human; conditions: for toxicity towards AR-expressing PCa cell lines: colony formation, 10 μM, three AR-expressing PCa cell lines; for degree of toxicity to PCa cells (killing vs reduced growth): dose-dependent toxicity, by day 7
Method: as §1
Dose-dependent inhibition of cell growth: Cells were plated at 1×10^3 cells per well in 96-well plates. Compounds were added in a dose range from 1 to 20000 nM in two-fold increments. Each dose was tested in triplicate. Controls were 0.1% DMSO (no effect on cell viability) and 50 μM 9-aminoacridine (complete cell death). Cells were incubated for 6 days and then fixed and stained with methylene blue, followed by extraction of the stain with 1% SDS and spectrophotometry at 650 nm. The assay was run two times and, based on the results, the inhibitory concentration of compound suppressing cell growth by 50% as compared to DMSO (IC50) was calculated by the sigmoid approximation method using CalcuSyn software (Biosoft, Chembridge, UK). Confidence intervals were calculated for each sigmoid.
as §2, with “the cells. […]” for “the cells.”

[6] = system: NIH Swiss mice; assay: Compound safety in mice, dose escalation; assay type: in vivo; conditions: three i.p. injections 20x, 50x, 100xIC50 in 3 day intervals
Method: Testing of compound safety in mice was done according to an IACUC-approved protocol. The experiment was performed using outbred 8 week old NIH Swiss male mice from Harlan (Indianapolis, Ind.), 4 mice per group. IC50 concentrations were used to calculate in vivo doses based on mouse weight (IC50 in vivo dose equivalent in mg/kg=IC50 in mg/ml×1000, based on the assumption that 1 g of mouse tissues have an approximate volume of 1 ml). The compounds were injected intraperitoneally (i.p.) in 25% DMSO-75% PBS starting from 20×IC50 equivalent of in vitro cytotoxic dose of compounds. […]. The control group of mice received 3 injections of 25% DMSO-75% PBS in intervals of three days. Blood biochemistry analysis was performed by BioReliance (Rockville, Md.).
Five hit compounds, representing both the ARTIS and ARTIK categories (c6, c11, c17, c52 and c85), were selected for in vivo tests based on all of the previous assays. Compound c5 was rejected due to very low microsomal stability (<5% after 1 hour incubation with rat microsomes). The toxicity of the compounds was evaluated in a dose escalation assay in which male NIH Swiss mice (n=4) received three sequential intraperitoneal (i.p.) injections of each compound delivered in 3 day intervals. […]. On the day after the last injection, half of the mice in each group were sacrificed for gross pathology examination and collection of blood for serum biochemistry assays, which include total protein, glucose, bilirubin, and creatinine levels, activity of liver enzymes, and ion concentrations. The remaining mice were sacrificed and evaluated similarly 7 days after the last compound injection. […] A minor decrease in serum glucose concentration (70-80% of control) was observed on the day after the last compound injection in almost all mice, but glucose levels were normal a week later (data not shown). Low serum glucose level might reflect of a weak transient GR-inhibitory effect of the selected compounds.

[7] = system: CWR22R cells; assay: Cell cycle distribution by propidium iodide staining; assay type: cell-based, human; conditions: for changes in cell cycle distribution: increase in G1, decrease in S phase; for cells with sub-G1 DNA content (apoptotic): propidium iodide FACS
Method: Analysis of cell cycle distribution was based on staining of DNA content by propidium iodide. 10^5 cells were removed from culture dishes using trypsin, washed with PBS and resuspended in 300 μl 3% BSA in PBS, followed by addition of […] 70% ethanol. Cells were kept at −20° C. for several hours and then stained with 10 μg/ml propidium iodide in the presence of 30 μg/ml RNase A for 2 hrs at 37° C. DNA content was assessed using a FACS Calibur instrument and CellQuest software (Becton Dickinson, Franklin Lakes, N.J.).
To test this possibility, we assessed the cell cycle distribution of CWR22R cells treated with both categories of compounds. […] Therefore, different subsets of compounds inhibiting AR-dependent transcription in androgen-independent PCa cells cause either growth arrest or apoptosis in these cells. Whether a compound causes growth arrest or apoptosis is not determined by the potency of the compound as an inhibitor of AR-dependent transcription (i.e., FIG. 2B).

| Structure (SMILES) | growth of / toxicity towards non-PCa cells or AR-negative PCa cells (DU145) [1] | growth of androgen-independent C4-2 and CWR22R cells [2] | growth of androgen-sensitive LNCaP cells [3] | C4-2 tumor growth [4] | toxicity towards AR-expressing PCa cell lines [5] | degree of toxicity to PCa cells (killing vs reduced growth) [5] | toxicity in mice (visual inspection, gross pathology) [6] | changes in cell cycle distribution [7] | cells with sub-G1 DNA content (apoptotic) [7] |
| --- | --- | --- | --- | --- | --- | --- | --- | --- | --- |
| FC(F)(F)c1ccccc1CN1CCN(Cc2c[nH]c3ccccc23)CC1 [c66] | exception | – | – | – | – | – | – | – | – |
| CC(C)c1ccc2oc(-c3cccc(NC(=S)NC(=O)c4ccccc4Br)c3)nc2c1 [c16] | – | do not affect growth | suppressed growth of LNCaP cells; also recorded: suppress growth of androgen-sensitive LNCaP cells | – | – | – | – | – | – |
| O=C(NC(=S)Nc1nc(-c2ccccc2)cs1)c1ccc(-c2ccccc2)cc1 [c17] | no toxicity | – | – | did not | different degrees of toxicity; also recorded: suppress growth of all | reduced growth as compared to untreated control cells, but not obvious cell death | – | – | – |
| Cc1ccc(OCC(=O)Nc2ccc(Cl)c([N+](=O)[O-])c2)c(C)c1 [c61] | – | do not affect growth | suppressed growth of LNCaP cells; also recorded: suppress growth of androgen-sensitive LNCaP cells | – | – | – | – | – | – |
| C=CCc1ccccc1OCCOc1ccc(C=Nn2cnnc2)cc1OC [c18] | no toxicity | – | – | – | different degrees of toxicity; also recorded: suppress growth of all | reduced growth as compared to untreated control cells, but not obvious cell death | – | – | – |
| CC1=C(C(=O)OCCc2ccccc2)C(c2ccc(Cl)cc2)C2=C(CCCC2=O)N1 (centres unmarked) [c8] | – | do not affect growth | suppressed growth of LNCaP cells; also recorded: suppress growth of androgen-sensitive LNCaP cells | – | – | – | – | – | – |
| CC(C)(C)c1ccc(C(=O)Nc2ccc(NC(=O)c3ccc4c(c3)OCCO4)cc2)cc1 [c11] | no toxicity | – | – | clear suppression of C4-2 tumor growth | different degrees of toxicity; also recorded: suppress growth of all | reduced growth as compared to untreated control cells, but not obvious cell death | generally non-toxic | cell cycle arrest | did not result in appearance of cells with sub-G1 DNA content |
| C=CCc1ccc(OCCCOc2ccccc2C(C)=O)c(OC)c1 [c47] | – | do not affect growth | suppressed growth of LNCaP cells; also recorded: suppress growth of androgen-sensitive LNCaP cells | – | – | – | – | – | – |
| c1ccc(CNc2ccc(-c3nc4ccccc4o3)cc2)cc1 [c55] | – | do not affect growth | suppressed growth of LNCaP cells; also recorded: suppress growth of androgen-sensitive LNCaP cells | – | – | – | – | – | – |
| Clc1ccccc1C1Nc2cccc3cccc(c23)N1 [c6] | no toxicity | – | – | clear suppression of C4-2 tumor growth | different degrees of toxicity; also recorded: suppress growth of all | reduced growth as compared to untreated control cells, but not obvious cell death | generally non-toxic | cell cycle arrest | did not result in appearance of cells with sub-G1 DNA content |
